In US20240383913A1, “THIOPHENE RING COMPOUND, PREPARATION METHOD THEREFOR AND APPLICATION THEREOF” (CENTER FOR EXCELLENCE IN MOLECULAR CELL SCIENCE, CHINESE …, priority 2021, published 2024):
Where two headings read alike, the source gives them in different places.

Tests used:
[1] = target: T1, dopamine D2 receptors (Homo sapiens (Human), UniProt P14416); assay: Affinity for dopamine D2 receptors, radioligand competition with [3H]-Methylspiperone; assay type: binding; conditions: 293T membrane transiently expressing D2
Method: The affinity of the compounds of the present disclosure for the dopamine D2 receptors was determined by the method of radioligand competition experiment. In the first step, a cell membrane component containing specific dopamine D2 receptors was prepared. A 10 cm culture dish was used for transfection with 10 ng of the dopamine D2 receptors and 40 μL of polyethylenimine (PEI hereafter). After 48 hours, the 10 cm culture dish was taken out from the cell culture incubator and the cultured cells had expressed the dopamine D2 receptors. A vacuum pump was used to suck off the culture medium, 3 mL of lysis buffer was added to each culture dish, and the cells were placed in a 4° C. cold room for 10 minutes. After the cells were detached, the cells were transferred to a 15 mL centrifuge tube and centrifuged at 1500 rpm for 5 minutes at 4° C., and the supernatant was discarded. The cell pellet was transferred to a tissue homogenizer, and 3 mL of lysis buffer was added and fully ground until the cells were broken. Then, cell suspension was equally aliquoted into several EP tubes, centrifuged at 12000 rpm for 5 minutes at 4° C., and the supernatant was discarded. The precipitate was the cell membrane component containing the dopamine D2 receptors. […] First, a standard binding buffer was added to the cell membrane component containing the dopamine D2 receptors, and the cell membrane was disrupted and resuspended with an electric tissue homogenizer. 30 μL of membrane protein suspension was added to each well of a 96-well plate. Then, 30 μL of different drugs were added to the 96-well plate sequentially from bottom to top to ensure that the final drug concentrations were 10^−5 M, 10^−6 M, 10^−7 M, 10^−8 M, 10^−9 M, and 0 M, with two replicates per treatment. Next, 30 μL of [3H]-Methylspiperone was added to each well of the 96-well plate. The plate was incubated for 2 hours at room temperature in the dark. Detection was conducted. The machine readout value reflected the amount of [3H]-Methylspiperone bound on the membrane, and after further data processing, the affinity Ki values of different compounds for the dopamine D2 receptors were obtained.

[2] = target: T1, dopamine D2 receptors; assay: Dopamine D2 receptor Gαi1 BRET (G protein trimer dissociation); assay type: cell-based; conditions: for Emax: read-out: Gαi1 BRET (Emax %);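 as to all read-outs here: transfected cells co-expressing D2 receptor, Gαi1-Rluc, Gβ3 and Gγ9-GFP, BRET with coelenterazine 400a at 5 µM read as G protein trimer dissociation, graded drug concentrations in duplicate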
Method: (§1) To examine the downstream G protein signaling pathway mediated by dopamine D2 receptors, on the first day, a 6 cm culture dish was used for transfection with 1 μg of dopamine D2 receptors, 1 μg of Gαi1 containing a C-terminal seaweed luciferase (Gαi1-Rluc), 1 μg of Gβ3, 1 μg of Gγ9 containing C-terminal green fluorescent protein (Gγ9-GFP), and 16 μL of PEI. At the same time, in order to examine the downstream β-arrestin2 signaling pathway mediated by dopamine D2 receptors, on the first day, a 6 cm culture dish was used for transfection with 500 μg of dopamine D2 receptors containing C-terminal seaweed luciferase (D2-Rluc), 500 μg of G protein-coupled receptor kinase 2 (GRK2), 2500 μg of β-arrestin2 containing N-terminal green fluorescent protein (GFP2-ARRB2) mixed with 14 μL of PEI. The next day, the confluent cells of a 6 cm culture dish were digested and reseeded into a 96-well plate with 100 μL of culture medium added to each well. On the third day, the drugs were added for test. The 96-well plate was taken out from the cell incubator to decant the culture medium, 40 μL of the substrate coelenterazine 400a (final concentration of 5 μM) was added to each well, and then 20 μL of different drugs were added sequentially from left to right to ensure that the final concentration of the drug decreased gradually from bottom to top, with two replicates per treatment. Finally, the prepared samples were loaded on machine for test. The machine readout value reflected the recruitment of β-arrestin2 to the membrane or the dissociation of G protein trimer. The former indicated the degree of activation of the β-arrestin2 signaling pathway downstream of the dopamine D2 receptors, and the latter indicated the degree of activation of the G protein signaling pathway downstream of the dopamine D2 receptors.

[3] = target: T1, dopamine D2 receptors; assay: Dopamine D2 receptor β-arrestin2 BRET (recruitment); assay type: cell-based; conditions: for Emax: read-out: β-arrestin2 BRET (Emax %);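 as to all read-outs here: cells co-expressing Rluc-fused D2 receptor, GRK2 and GFP2-fused β-arrestin2, BRET read with coelenterazine 400a after adding drug over a concentration series, in duplicate wells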
Method: as §1

[4] = target: T2, 5-HT2A receptor (Homo sapiens (Human), UniProt P28223); assay: Affinity for 5-HT2A receptors, radioligand competition with [3H]-ketanserin; assay type: binding; conditions: 293T membrane transiently expressing 5-HT2A
Method: The affinity of the compounds of the present disclosure for the 5-HT2A receptors was determined by the method of radioligand competition experiment. In the first step, a cell membrane component containing specific 5-HT2A receptor was prepared. A 10 cm dish was used for transfection with 10 ng of the 5-HT2A receptor and 40 μL of PEI. After 48 hours, the 10 cm dish was taken out from the cell incubator and the cultured cells had expressed the 5-HT2A receptor. A vacuum pump was used to suck off the culture medium, 3 mL of lysis buffer was added to each culture dish, and the cells were placed in a 4° C. cold room for 10 minutes. After the cells were detached, the cells were transferred to a 15 mL centrifuge tube and centrifuged at 1500 rpm for 5 minutes at 4° C., and the supernatant was discarded. The cell pellet was transferred to a tissue homogenizer, and 3 mL of lysis buffer was added and fully ground until the cells were broken. Then, cell suspension was equally aliquoted into several EP tubes, centrifuged at 12000 rpm for 5 minutes at 4° C., and the supernatant was discarded. The precipitate was the cell membrane component containing the 5-HT2A receptor. […] First, a standard binding buffer was added to the cell membrane component containing the 5-HT2A receptor, and the cell membrane was disrupted and resuspended with an electric tissue homogenizer. 30 μL of membrane protein suspension was added to each well of a 96-well plate. Then, 30 μL of different drugs were added to the 96-well plate sequentially from bottom to top to ensure that the final drug concentrations were 10^−5 M, 10^−6 M, 10^−7 M, 10^−8 M, 10^−9 M, and 0 M, with two replicates per treatment. Next, 30 μL of [3H]-ketanserin was added to each well of the 96-well plate. The plate was incubated for 2 hours at room temperature in the dark. Detection was conducted. The machine readout value reflected the amount of [3H]-ketanserin bound on the membrane, and after further data processing, the affinity Ki values of different compounds for the 5-HT2A receptor were obtained.

[5] = target: T2, 5-HT2A receptor; assay: 5-HT2A receptor Gαq BRET (G protein trimer dissociation); assay type: cell-based; conditions: for Emax: read-out: Gαq BRET (Emax %);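 as to all read-outs here: cells transfected with 5-HT2A receptor, Gαq-Rluc, Gβ3 and Gγ9-GFP, BRET read with coelenterazine 400a (5 µM) across a compound dilution series in duplicate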
Method: (§2) To examine the downstream G protein signaling pathway mediated by 5-HT2A receptors, on the first day, a 6 cm culture dish was used for transfection with 1 μg of 5-HT2A receptors, 1 μg of Gαq containing C-terminal seaweed luciferase (Gαq-Rluc), 1 μg of Gβ3, 1 μg of Gγ9 containing C-terminal green fluorescent protein (Gγ9-GFP), and 16 μL of PEI. At the same time, in order to examine the downstream β-arrestin2 signaling pathway mediated by 5-HT2A receptors, on the first day, a 6 cm culture dish was used for transfection with 500 μg of 5-HT2A receptors containing C-terminal seaweed luciferase (5-HT2A-Rluc), 500 μg of G protein-coupled receptor kinase 2 (GRK2), 2500 μg of β-arrestin2 containing N-terminal green fluorescent protein (GFP2-ARRB2), and 14 μL of PEI. The next day, the confluent cells of a 6 cm culture dish were digested and reseeded into a 96-well plate with 100 μL of culture medium was added to each well. On the third day, the drugs were added for test. The 96-well plate was taken out from the cell incubator to decant the culture medium, 40 μL of the substrate coelenterazine 400a (final concentration of 5 μM) was added to each well, and then 20 μL of different drugs were added sequentially from left to right to ensure that the final concentration of the drug decreased gradually from bottom to top, with two replicates per treatment. Finally, the prepared samples were loaded on machine for test. The machine readout value reflected the recruitment of β-arrestin2 to the membrane or the dissociation of G protein trimer. The former indicated the degree of activation of the β-arrestin2 signaling pathway downstream of the 5-HT2A receptors, and the latter indicated the degree of activation of the G protein signaling pathway downstream of the 5-HT2A receptors.

[6] = target: T2, 5-HT2A receptor; assay: 5-HT2A receptor β-arrestin2 BRET (recruitment); assay type: cell-based;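 also: cells co-expressing Rluc-tagged 5-HT2A receptor, GRK2 and GFP2-tagged β-arrestin2, read by BRET with coelenterazine 400a (5 µM) across graded drug concentrations in duplicate, signal reflecting β-arrestin2 membrane recruitment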
Method: as §2

[7] = target: T3, 5-HT1A receptor (Homo sapiens (Human), UniProt P08908); assay: Affinity for 5-HT1A receptors, radioligand competition with [3H]-LSD; assay type: binding;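 also: membranes from cells transiently transfected with 5-HT1A receptor, bound [3H]-LSD displaced by compound at 10^-9 to 10^-5 M, 2 h incubation at room temperature in the dark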
Method: (§3) The affinity of the compounds of the present disclosure for the 5-HTIA receptors was determined by the method of radioligand competition experiment. In the first step, a cell membrane component containing specific 5-HTIA receptor was prepared. A 10 cm culture dish was used for transfection with 10 ng of the 5-HTIA receptor and 40 μL of PEI. After 48 hours, the 10 cm culture dish was taken out from the cell incubator and the cultured cells had expressed the 5-HTIA receptor. A vacuum pump was used to suck off the culture medium, 3 mL of lysis buffer was added to each culture dish, and the cells were placed in a 4° C. cold room for 10 minutes. After the cells were detached, the cells were transferred to a 15 mL centrifuge tube and centrifuged at 1500 rpm for 5 minutes at 4° C., and the supernatant was discarded. The cell pellet was transferred to a tissue homogenizer, and 3 mL of lysis buffer was added and fully ground until the cells were broken. Then, cell suspension was equally aliquoted into several EP tubes, centrifuged at 12000 rpm for 5 minutes at 4° C., and the supernatant was discarded. The precipitate was the cell membrane component containing the 5-HT1A receptor. […] First, a standard binding buffer was added to the cell membrane component containing the 5-HT1A receptor, and the cell membrane was disrupted and resuspended with an electric tissue homogenizer. 30 μL of membrane protein suspension was added to each well of a 96-well plate. Then, 30 μL of different drugs were added to the 96-well plate sequentially from bottom to top to ensure that the final drug concentrations were 10^−5 M, 10^−6 M, 10^−7 M, 10^−8 M, 10^−9 M, and 0 M, with two replicates per treatment. Next, 30 μL of [3H]-LSD was added to each well of the 96-well plate. The plate was incubated for 2 hours at room temperature in the dark. Detection was conducted. The machine readout value reflected the amount of [3H]-LSD bound on the membrane, and after further data processing, the affinity Ki values of different compounds for the 5-HTIA receptor were obtained. To examine the downstream G protein signaling pathway mediated by 5-HTIA receptors, on the first day, a 6 cm culture dish was used for transfection with 1 μg of 5-HTIA receptors, 1 μg of Gαi1 containing C-terminal seaweed luciferase (Gαi1-Rluc), 1 μg of Gβ3, 1 μg of Gγ9 containing C-terminal green fluorescent protein (Gγ9-GFP), and 16 μL of PEI. The next day, the confluent cells of a 6 cm culture dish were digested and reseeded into a 96-well plate with 100 μL of culture medium was added to each well. On the third day, the drugs were added for test. The 96-well plate was taken out from the cell incubator to decant the culture medium, 40 μL of the substrate coelenterazine 400a (final concentration of 5 μM) was added to each well, and then 20 μL of different drugs were added sequentially from left to right to ensure that the final concentration of the drug decreased gradually from bottom to top, with two replicates per treatment. Finally, the prepared samples were loaded on machine for test. The machine readout value reflected the dissociation of G protein trimer, and thereby indicated the degree of activation of the G protein signaling pathway downstream of the 5-HTIA receptors.

[8] = target: T3, 5-HT1A receptor; assay: 5-HT1A receptor Gαi1 BRET (G protein trimer dissociation); assay type: cell-based;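 also: cells transiently co-expressing 5-HT1A receptor, luciferase-tagged Gαi1, Gβ3 and GFP-tagged Gγ9, seeded in 96-well plates for BRET measurement of G protein signaling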
Method: as §3

[9] = D2 receptor, G protein pathway, read-out: Gαi1 BRET EC50
[10] = D2 receptor, β-arrestin2 pathway, read-out: β-arrestin2 BRET EC50
[11] = 5-HT2A receptor, G protein pathway, read-out: Gαq BRET EC50
[12] = 5-HT2A receptor, β-arrestin2 pathway
[13] = 5-HT2A receptor, β-arrestin2 pathway, read-out: β-arrestin2 BRET EC50
[14] = 293T membrane transiently expressing 5-HT1A, [3H]-LSD, read-out: 5-HT1A affinity Ki
[15] = 5-HT1A receptor, G protein pathway
[16] = 5-HT1A receptor, G protein pathway, read-out: Gαi1 BRET EC50

T2 sequence (P28223 whole entry): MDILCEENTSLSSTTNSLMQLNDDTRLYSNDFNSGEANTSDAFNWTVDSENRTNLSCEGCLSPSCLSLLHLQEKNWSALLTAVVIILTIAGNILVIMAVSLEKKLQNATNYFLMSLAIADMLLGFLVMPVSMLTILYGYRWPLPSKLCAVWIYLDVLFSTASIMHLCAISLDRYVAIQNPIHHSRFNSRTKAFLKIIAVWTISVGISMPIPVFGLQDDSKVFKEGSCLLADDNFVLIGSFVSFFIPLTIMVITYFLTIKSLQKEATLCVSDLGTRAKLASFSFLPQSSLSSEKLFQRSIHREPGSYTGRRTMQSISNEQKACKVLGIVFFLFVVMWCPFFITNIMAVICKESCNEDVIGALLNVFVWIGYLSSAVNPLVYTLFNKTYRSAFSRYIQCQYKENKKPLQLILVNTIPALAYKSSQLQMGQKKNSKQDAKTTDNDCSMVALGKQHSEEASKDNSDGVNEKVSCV
T1 sequence (P14416 whole entry): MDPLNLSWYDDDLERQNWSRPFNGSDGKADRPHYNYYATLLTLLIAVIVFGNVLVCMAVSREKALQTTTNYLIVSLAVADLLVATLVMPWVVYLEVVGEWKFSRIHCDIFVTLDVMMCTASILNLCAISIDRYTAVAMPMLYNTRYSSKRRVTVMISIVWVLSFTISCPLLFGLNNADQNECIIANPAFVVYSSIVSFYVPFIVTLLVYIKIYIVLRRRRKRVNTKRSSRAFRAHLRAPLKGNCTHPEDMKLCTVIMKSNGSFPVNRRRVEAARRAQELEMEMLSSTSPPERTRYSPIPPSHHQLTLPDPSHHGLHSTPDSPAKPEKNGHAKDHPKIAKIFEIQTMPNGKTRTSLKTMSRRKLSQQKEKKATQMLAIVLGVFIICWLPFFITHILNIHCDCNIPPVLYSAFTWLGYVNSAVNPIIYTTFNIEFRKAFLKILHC
T3 sequence (P08908 whole entry): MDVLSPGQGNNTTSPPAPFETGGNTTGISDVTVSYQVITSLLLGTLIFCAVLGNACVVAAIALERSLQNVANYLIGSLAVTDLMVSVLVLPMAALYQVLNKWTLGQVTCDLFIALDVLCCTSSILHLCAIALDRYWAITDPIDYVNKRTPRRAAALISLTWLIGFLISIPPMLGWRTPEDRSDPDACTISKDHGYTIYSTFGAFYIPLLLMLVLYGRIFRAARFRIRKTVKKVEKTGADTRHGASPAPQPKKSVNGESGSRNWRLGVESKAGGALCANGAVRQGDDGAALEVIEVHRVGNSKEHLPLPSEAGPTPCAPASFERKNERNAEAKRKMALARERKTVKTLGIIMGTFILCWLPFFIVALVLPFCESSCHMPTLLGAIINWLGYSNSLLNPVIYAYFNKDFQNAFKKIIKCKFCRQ

SMILES | Ki [1] [nM] | EC50 [2, 9] [nM] | Emax [2] [%] | EC50 [3, 10] [nM] | Emax [3] [%] | Ki [4] [nM] | EC50 [5, 11] [nM] | Emax [5] [%] | Emax [6, 12] [%] | EC50 [6, 13] [nM] | Ki [7, 14] [nM] | Emax [8, 15] [%] | EC50 [8, 16] [nM] | further results
CCCN1CCN2c3cccc4scc(c34)CC2C1 (stereo not shown) [Compound I-2, 8-Propyl-6,6a,7,8,9,10-Hexahydropyrazino[1,2-a]Thieno [4,3,2-De]Quinoline] | 380 | 747 | 12.1 | 19.3 | 27.6 | 710 | 2.41 | 7.6 | 66.3 | 298 | 3420 | 72 | 7720 | –
OCCN1CCN2c3cccc4scc(c34)CC2C1 (stereo not shown) [Compound I-3, 2-(6a,7,9,10-Tetrahydropyrazino[1,2-a]Thieno [4,3,2-De]Quinolin-8 (6H)-Yl) Ethan-1-Ol] | > 10000 | – | 22.5 | – | 14.2 | 4130 | – | 43.6 | 90 | – | – | 62 | – | EC50 [2]: 40.7 nM; EC50 [3]: 189 nM; EC50 [5]: 1520 nM; EC50 [6]: 638 nM; Ki [7]: 4410 nM; EC50 [8]: 24200 nM
Fc1ccc(CCN2CCN3c4cccc5scc(c45)CC3C2)cc1 (stereo not shown) [Compound I-5, 8-(4-Fluorophenylethyl)-6,6a,7,8,9,10-Hexahydropyrazino[1,2-a]Thieno [4,3,2-De]Quinoline] | 7500 | 193 | 53.8 | 370 | 27.2 | 920 | – | 50 | 27.3 | – | 280 | 91 | 3130 | EC50 ([5]; read-out: Gαq BRET EC50): 1100 nM; EC50 ([6]; read-out: β-arrestin2 BRET EC50): 946 nM
c1csc(CCN2CCN3c4cccc5scc(c45)CC3C2)c1 (stereo not shown) [Compound I-6, 8-(2-(Thiophen-2-Yl)Ethyl)-6,6a,7,8,9,10-Hexahydropyrazino[1,2-a]Thieno [4,3,2-De]Quinoline] | 5730 | – | 58.4 | – | 20.2 | 7250 | – | – | 45.4 | 8340 | 2730 | 90 | 3230 | EC50 [2]: 342 nM; EC50 [3]: 299 nM
Fc1ccc(-c2cncc(CN3CCN4c5cccc6scc(c56)CC4C3)c2)cc1 (stereo not shown) [Compound I-8, 8-((5-(4-Fluorophenyl)Pyridin-3-Yl)Methyl)-6,6a,7,8,9,10-Hexahydropyrazino[1,2-a]Thieno [4,3,2-De]Quinoline] | 440 | 531 | 15.9 | 371 | 14.1 | 1460 | 4540 | 21 | 84.2 | 1290 | 9850 | 53 | 16300 | –
O=C(NCCN1CCN2c3cccc4scc(c34)CC2C1)C1CCOCC1 (stereo not shown) [Compound I-14, N-(2-(6a,7,9,10-Tetrahydropyrazino[1,2-a]Thieno [4,3,2-De]Quinolin-8 (6H)-Yl)Ethyl)Tetrahydro-2H-Pyran-4-Carboxamide] | > 10000 | – | – | – | – | 1190 | 475 | – | – | 123 | 1300 | 86 | 2000 | Gαq BRET (Emax %) ([5]; 5-HT2A receptor, G protein pathway): (29.10%); β-arrestin2 BRET (Emax %) [6, 12]: (21.00%)
c1ccc(OCCN2CCN3c4cccc5scc(c45)CC3C2)cc1 (stereo not shown) [Compound I-15, 8-(2-Phenoxyethyl)-6,6a,7,8,9,10-Hexahydropyrazino[1,2-a]Thieno [4,3,2-De]Quinoline] | 5500 | 334 | 18.6 | 164 | 10.5 | 1710 | – | – | 10 | 1770 | 840 | 57 | 5260 | –
O=c1ccc2ccc(OCCCN3CCN4c5cccc6scc(c56)CC4C3)cc2[nH]1 (stereo not shown) [Compound I-17, 7-(3-(6a,7,9,10-Tetrahydropyrazino[1,2-a]Thieno [4,3,2-De]Quinolin-8 (6H)-Yl) Propoxy) Quinolin-2 (1H)-One] | 290 | 18.5 | 81.6 | 91.6 | 66.8 | 750 | 279 | 23.4 | 92.2 | 1270 | 340 | 86 | 754 | –
O=C1c2ccccc2CN1CCCCN1CCN2c3cccc4scc(c34)CC2C1 (stereo not shown) [Compound I-22, 2-(4-(6a,7,9,10-Tetrahydropyrazino[1,2-a]Thieno [4,3,2-De]Quinolin-8 (6H)-Yl)Butyl) Isoindolin-1-One] | 490 | 161 | 37 | 328 | 24.8 | 1200 | 966 | 13.8 | 64.6 | 3470 | 350 | 87 | 1470 | –
COc1cc2c(cc1OC)C(=O)N(CCCCN1CCN3c4cccc5scc(c45)CC3C1)C2 (stereo not shown) [Compound I-23, 5,6-Dimethoxy-2-(4-(6a,7,9,10-Tetrahydropyrazino[1,2-a]Thieno [4,3,2-De]Quinolin-8 (6H)-Yl)Butyl) Isoindolin-1-One] | 750 | 282 | 61.9 | 130 | 38.5 | 160 | 245 | 18.9 | 138 | 8060 | 4130 | 71 | 6700 | –
CN(C)C(=O)N[C@H]1CC[C@H](CCN2CCN3c4cccc5scc(c45)CC3C2)CC1 (stereo partly drawn) [Compound I-27, 1,1-Dimethyl-3-(4-(2-(6a, 7,9,10-Tetrahydropyrazino[1,2-a]Thieno [4,3,2-De]Quinolin-8 (6H)-Yl)Ethyl) Trans-Cyclohexyl) Urea] | 80 | 3.87 | 73.6 | 10.2 | 52.1 | 210 | 158 | 9.57 | 34.7 | 13.8 | 160 | 64 | 164 | –
O=C(N[C@H]1CC[C@H](CCN2CCN3c4cccc5scc(c45)CC3C2)CC1)N1CCCCC1 (stereo partly drawn) [Compound I-29, N-(4-(2-(6a,7,9,10-Tetrahydropyrazino[1,2-a]Thieno [4,3,2-De]Quinolin-8 (6H)-Yl)Ethyl) Trans-Cyclohexyl) Piperidine-1-Carboxamide] | 180 | 32.2 | 45.2 | 102 | 31.8 | 450 | 299 | 8.61 | 21.8 | 30.2 | 120 | 62 | 1480 | –
